Legend:
Type in all cases: cell-based
[1] = system: PD1-ss+10aa/Gaussia Luciferase; assay: Dox-Induced PD1-ss-Gluc Assay; details: 24 hr doxycycline induction, 293FRT/TO cells, Gaussia luciferase signal; read-out: 24 hr Dox Inducible PD1ssGluc 293FRT/TO: Mean IC50
Method in brief: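 Compounds, diluted in DMSO/media with doxycycline, were added to cells plated a day earlier and kept at 37° C under 5% CO2. The cells stably express a Gaussia luciferase construct fused to PD1-ss+10aa, induced via the T-REx system. Unassigned stereochemistry means mixture data.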

[2] = system: TNFα-FL/Gaussia Luciferase; assay: Dox Induced TNFα-FL-Gluc Assay; details: 24 hr doxycycline induction, 293FRT/TO cells, Gaussia luciferase signal; read-out: 24 hr Dox Inducible TNFaFLGluc 293FRT/TO: Mean IC50
Method in brief: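 Compounds were added in doxycycline-containing DMSO/media to cells plated the previous day and incubated at 37° C under 5% CO2. These cells stably express a TNFα-FL/Gaussia luciferase cDNA whose expression is under T-REx (Dox-inducible) control, selected with Hygromycin and Blasticidin.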

[3] = system: HER3-ss+4aa/Gaussia Luciferase; assay: Dox-Induced Her3-ss-Gluc Assay; details: 24 hr doxycycline induction, 293FRT/TO cells, Gaussia luciferase signal; read-out: 24 hr Dox Inducible Her3(ss + 4)Gluc 293FRT/TO: Mean IC50
Method in brief: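 Compounds, diluted in DMSO/media containing doxycycline, were incubated at 37° C., 5% CO2 with cells seeded one day earlier. The cells stably express HER3-ss+4aa/Gaussia luciferase under T-REx control. Where no stereochemistry is shown, data refer to the mixture of stereoisomers.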

[4] = system: IL-2-FL/Gaussia Luciferase; assay: Dox Induced IL2-FL-Gluc Assay; details: 24 hr doxycycline induction, 293FRT/TO cells, Gaussia luciferase signal; read-out: 24 hr Dox Inducible IL2FLGIuc 293FRT/TO: Mean IC50
Method in brief: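 Compounds were added together with doxycycline in DMSO/media and incubated at 37° C., 5% CO2. The cells were a stably selected line carrying IL-2-FL/Gaussia luciferase under T-REx inducible control. Structures drawn without stereochemistry were tested as stereoisomer mixtures.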

[5] = system: human multiple myeloma cell line NCI-H929; assay: H929 Cell Viability Assay; details: 48 hr, NCI-H929 cells, Celltiter-Glo, read-out: 48 hr H929 Viability Celltiter-Glo: Mean EC50
Experimental: Plates were incubated at 37° C., 5% CO2 for 48 hours. After 48 hours, Celltiter-Glo® (Promega) was added to each well and luciferase signal was quantified using Tecan Infinite M1000 Pro for cell viability determination.
For chemical structures that include one or more stereoisomers, but are illustrated without indicating stereochemistry, the assay data refers to a mixture of stereoisomers.

[6] = system: human multiple myeloma cell line U266B1; assay: U266 Cell Viability Assay; details: U-266, 48 hr, U266B1 cells, Celltiter-Glo, read-out: 48 hr U266 Viability Celltiter-Glo: Mean EC50
Method in brief: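 Viability measured by CellTiter-Glo luciferase signal after 48 h compound exposure (37 °C, 5% CO2) of U266B1 cells in 384-well format. Where stereochemistry is not shown, data refer to the stereoisomer mixture.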

| SMILES | IC50 [1] [nM] | IC50 [2] [µM] | IC50 [3] [nM] | IC50 [4] [nM] | EC50 [5] [µM] | EC50 [6] [µM] |
| --- | --- | --- | --- | --- | --- | --- |
| NC(=O)c1ccc(/C=C/c2csc(NC(=O)c3cccn3Cc3ccncc3)n2)cc1 [Compound A231] | 506 | 11.2 | > 25000 | 7070 | 16.8 | > 25 |
| O=C(Nc1nc(/C=C/c2ccoc2)cs1)c1cccn1CCCc1ccncc1 [Compound A232, N-(4-(2-(furan-3-yl)vinyl)thiazol-2-yl)-1-(3-(pyridin-4-yl)propyl)-1H-pyrrole-2-carboxamide] | 2990 | 21.5 | 14900 | 8600 | 13.4 | 19.7 |
| O=C(Nc1nc(/C=C/c2ccc(N3CCCCC3)cc2)cs1)c1cccn1Cc1ccncc1 [Compound A233] | 56 | 2.22 | 304 | 633 | 5.79 | > 25 |
| O=C(Nc1nc(/C=C/c2ccc3c(c2)OCO3)cs1)c1cccn1Cc1ccncc1 [Compound A234, N-(4-(2-(benzo[d][1,3]dioxo1-5-yl)vinyl)thiazol-2-yl)-1-(pyridin-4-ylmethyl)-1H-pyrrole-2-carboxamide] | 63 | > 25 | 216 | 341 | 4.49 | > 25 |
| O=C(Nc1nc(/C=C/c2ccc3c(c2)OC(F)(F)O3)cs1)c1cccn1Cc1ccncc1 [Compound A235, N-(4-(2-(2,2-difluorobenzo[d][1,3]dioxo1-5-yl)vinyl)thiazol-2-yl)-1-(pyridin-4-ylmethyl)-1H-pyrrole-2-carboxamide] | 63 | > 25 | 145 | 237 | 4.15 | > 25 |
| CC(C)Oc1ccc(/C=C/c2csc(NC(=O)c3cccn3Cc3ccncc3)n2)cc1 [Compound A236, N-(4-(4-isopropoxystyryl)thiazol-2-yl)-1-(pyridin-4-ylmethyl)-1H-pyrrole-2-carboxamide] | 87 | 3.24 | 535 | 1010 | 7.7 | > 25 |
| O=C(Nc1nc(/C=C/c2ccc3ncccc3c2)cs1)c1cccn1Cc1ccncc1 [Compound A237] | 288 | > 25 | 1120 | 1870 | 18.7 | > 25 |
| CC(C)OC(C)(C)c1csc(NC(=O)c2cccn2Cc2ccncc2Cl)n1 [Compound A238, 1-((3-chloropyridin-4-yl)methyl)-N-(4-(2-isopropoxypropan-2-yl)thiazol-2-yl)-1H-pyrrole-2-carboxamide] | 643 | 18.3 | 1570 | 1200 | > 25 | > 25 |
| CNC(=O)c1ccc(/C=C/c2csc(NC(=O)c3cccn3Cc3ccncc3)n2)cc1 [Compound A239] | 1510 | > 25 | > 25000 | > 25000 | > 25 | > 25 |
| COc1ccc(/C=C/c2csc(NC(=O)c3cccn3Cc3ccncc3)n2)cc1F [Compound A240, N-(4-(3-fluoro-4-methoxystyryl)thiazol-2-yl)-1-(pyridin-4-ylmethyl)-1H-pyrrole-2-carboxamide] | 55 | 7.79 | 271 | 445 | 11.8 | > 25 |
| COc1ccc(/C=C/c2csc(NC(=O)c3cccn3Cc3ccncc3)n2)c(F)c1 [Compound A241, N-(4-(2-fluoro-4-methoxystyryl)thiazol-2-yl)-1-(pyridin-4-ylmethyl)-1H-pyrrole-2-carboxamide] | 27 | 1.31 | 179 | 324 | 8.37 | > 25 |
| O=C(Nc1nc(C2=Cc3ccccc3C2)cs1)c1cccn1Cc1ccncc1 [Compound A242, N-(4-(1H-inden-2-yl)thiazol-2-yl)-1-(pyridin-4-ylmethyl)-1H-pyrrole-2-carboxamide] | 281 | > 25 | 596 | > 25000 | > 25 | > 25 |
| CC(C)OC(C)(C)c1csc(NC(=O)c2cccn2CCCc2ccncc2F)n1 [Compound A243, 1-(3-(3-fluoropyridin-4-yl)propyl)-N-(4-(2-isopropoxypropan-2-yl)thiazol-2-yl)-1H-pyrrole-2-carboxamide] | 178 | 2.36 | 199 | 136 | 14.8 | > 25 |
| O=C(Nc1nc(/C=C/C2=CCCCC2)cs1)c1cccn1Cc1ccncc1 [Compound A244, N-(4-(2-(cyclohex-1-en-1-yl)vinyl)thiazol-2-yl)-1-(pyridin-4-ylmethyl)-1H-pyrrole-2-carboxamide] | 81 | 1.43 | 225 | 648 | 17.7 | 17.4 |
| CC(=O)N(C)c1ccc(/C=C/c2csc(NC(=O)c3cccn3Cc3ccncc3)n2)cc1 [Compound A245] | 3180 | 22.2 | > 25000 | 14100 | 9.06 | 17.5 |
| CN(C)C(=O)c1ccc(/C=C/c2csc(NC(=O)c3cccn3Cc3ccncc3)n2)cc1 [Compound A246] | 526 | > 25 | 21900 | > 25000 | 14 | 10.3 |
| C/C(=C\c1ccccc1)c1csc(NC(=O)c2cccn2Cc2ccncc2)n1 [Compound A247, N-(4-(1-phenylprop-1-en-2-yl)thiazol-2-yl)-1-(pyridin-4-ylmethyl)-1H-pyrrole-2-carboxamide] | 146 | 2.32 | 377 | 788 | > 25 | > 25 |
| O=C(Nc1nc(/C=C/c2ccc(OC3CC3)cc2)cs1)c1cccn1Cc1ccncc1 [Compound A248, N-(4-(4-cyclopropoxystyryl)thiazol-2-yl)-1-(pyridin-4-ylmethyl)-1H-pyrrole-2-carboxamide] | 38 | 1.51 | 152 | 211 | > 25 | > 25 |
| O=C(Nc1nc(C2=CCC(c3ccccc3)CC2)cs1)c1cccn1Cc1ccncc1 (stereo not drawn) [Compound A249, 1-(pyridin-4-ylmethyl)-N-(4-(1,2,3,6-tetrahydro-[1,1-biphenyl]-4-yl)thiazol-2-yl)-1H-pyrrole-2-carboxamide] | 163 | 1.41 | 545 | 881 | 19.9 | 14.4 |
| CCc1cnccc1Cn1cccc1C(=O)Nc1nc(C(C)(C)OC(C)C)cs1 [Compound A250, 1-((3-ethylpyridin-4-yl)methyl)-N-(4-(2-isopropoxypropan-2-yl)thiazol-2-yl)-1H-pyrrole-2-carboxamide] | 5280 | > 25 | 15700 | 7400 | > 25 | > 25 |
| CC(/C=C/c1csc(NC(=O)c2cccn2Cc2ccncc2)n1)c1ccccc1 (stereo not drawn) [Compound A251] | 125 | 1.42 | 344 | 549 | 11.7 | > 25 |
| C/C(=C\c1csc(NC(=O)c2cccn2Cc2ccncc2)n1)c1ccccc1 [Compound A252] | 530 | 6.93 | 1130 | 1280 | 14 | > 25 |
| CO[C@H]1CC[C@H](/C=C/c2csc(NC(=O)c3cccn3Cc3ccncc3)n2)CC1 [Compound A253, N-(4-(2-((1r,4r)-4-methoxycyclohexyl)vinyl)thiazol-2-yl)-1-(pyridin-4-ylmethyl)-1H-pyrrole-2-carboxamide] | 220 | 4.2 | 672 | 1580 | 10.8 | 15.6 |
